The subject of data set [1] is DHFR (human against Plasmodium falciparum DHFR). As to the kind of experiment: Selectivity index, ratio of Ki for human DHFR expressed in Escherichia coli BL21 to Ki for Plasmodium falciparum DHFR expressed in Escherichia coli BL21. The settings on record: read-out: Ratio Ki. In kind it is toxicity.
Data set [2] has as its system Plasmodium falciparum. As to the kind of experiment: Antimalarial activity against Plasmodium falciparum T9/94 RC17 harboring DHFR A16V/S108T mutant infected in human erythrocytes assessed as reduction in [3H]-hypoxanthine incorporation pretreated for 20 hrs followed by [3H]-hypoxanthine addition measured after 20 hrs by radioactivity method. In kind it is functional, organism-based. Particulars: T9/94 RC17, Erythrocyte.

Data set [3] deals with Vero. Nature of the data set: Cytotoxicity against African green monkey Vero cells assessed as reduction in cell viability incubated for 72 hrs by SRB assay. Particulars: Chlorocebus sabaeus. In kind it is cell-based. (The SRB assay estimates cell density from bound dye.)
For data set [4], the system named is Plasmodium falciparum. As to the kind of experiment: Antimalarial activity against Plasmodium falciparum V1/S harboring DHFR N51I/C59R/S108N/I164L mutant infected in human erythrocytes assessed as reduction in [3H]-hypoxanthine incorporation pretreated for 20 hrs followed by [3H]-hypoxanthine addition measured after 20 hrs by radioactivity method. Type of data set: functional, organism-based. The settings on record: Erythrocyte.

Data set [5] can be described thus: Therapeutic index, ratio of IC50 for African green monkey Vero cells to IC50 for Plasmodium falciparum V1/S harboring DHFR N51I/C59R/S108N/I164L mutant. In kind it is toxicity. Particulars: read-out: Ratio IC50.
In data set [6] the test system is DHFR (human against Plasmodium falciparum DHFR double mutant). Nature of the data set: Selectivity index, ratio of Ki for human DHFR expressed in Escherichia coli BL21 to Ki for Plasmodium falciparum DHFR double mutant expressed in Escherichia coli BL21. Type of data set: toxicity. The settings on record: read-out: Ratio Ki.
In data set [7] the test system is Plasmodium falciparum. Nature of the data set: Antimalarial activity against Plasmodium falciparum CsI-2 harboring DHFR C59R/S108N/I164L mutant infected in human erythrocytes assessed as reduction in [3H]-hypoxanthine incorporation pretreated for 20 hrs followed by [3H]-hypoxanthine addition measured after 20 hrs by radioactivity method. In kind it is functional, organism-based. Particulars: CsI-2, Erythrocyte.

Data set [8] can be described thus: Inhibition of Plasmodium falciparum DHFR N51I/C59R/S108N mutant expressed in Escherichia coli BL21 using DHF as substrate by spectrophotometric analysis.
The subject of data set [9] is Plasmodium falciparum. Nature of the data set: Antimalarial activity against Plasmodium falciparum W2 harboring DHFR N51I/C59R/S108N mutant infected in human erythrocytes assessed as reduction in [3H]-hypoxanthine incorporation pretreated for 20 hrs followed by [3H]-hypoxanthine addition measured after 20 hrs by radioactivity method. Type of data set: functional, organism-based. The settings on record: W2, Erythrocyte.

A short description of data set [10]: Inhibition of Plasmodium falciparum DHFR N51I/C59R/S108N/I164L mutant expressed in Escherichia coli BL21 using DHF as substrate by spectrophotometric analysis.
Data set [11] in a line: Therapeutic index, ratio of IC50 for African green monkey Vero cells to IC50 for Plasmodium falciparum TM4/8.2. Type of data set: toxicity. The settings on record: against Plasmodium falciparum TM4/8.2, read-out: Ratio IC50.
Data set [12] relates to DHFR (human against Plasmodium falciparum DHFR N51I/C59R/S108N/I164L mutant). As to the kind of experiment: Selectivity index, ratio of Ki for human DHFR expressed in Escherichia coli BL21 to Ki for Plasmodium falciparum DHFR N51I/C59R/S108N/I164L mutant expressed in Escherichia coli BL21. Particulars: read-out: Ratio Ki. Type of data set: toxicity.
The nature of data set [13]: Inhibition of Plasmodium falciparum DHFR expressed in Escherichia coli BL21 using DHF as substrate by spectrophotometric analysis.
Data set [14] is described as follows: Inhibition of Plasmodium falciparum DHFR […] mutant expressed in Escherichia coli BL21 using DHF as substrate by spectrophotometric analysis.
The nature of data set [15]: Inhibition of Plasmodium falciparum DHFR C59R/S108N/I164L mutant expressed in Escherichia coli BL21 using DHF as substrate by spectrophotometric analysis.
The nature of data set [16]: Inhibition of Plasmodium falciparum DHFR A16V/S108T mutant expressed in Escherichia coli BL21 using DHF as substrate by spectrophotometric analysis.
Data set [17] can be described thus: Therapeutic index, ratio of IC50 for African green monkey Vero cells to IC50 for Plasmodium falciparum K1CB1 harboring DHFR […] mutant. In kind it is toxicity. The settings on record: read-out: Ratio IC50.
Data set [18] has as its system Plasmodium falciparum. Nature of the data set: Antimalarial activity against Plasmodium falciparum K1CB1 harboring DHFR […] mutant infected in human erythrocytes assessed as reduction in [3H]-hypoxanthine incorporation pretreated for 20 hrs followed by [3H]-hypoxanthine addition measured after 20 hrs by radioactivity method. Type of data set: functional, organism-based. The settings on record: K1CB1, Erythrocyte.

Data set [19] deals with Plasmodium falciparum. Nature of the data set: Antimalarial activity against Plasmodium falciparum TM4/8.2 infected in human erythrocytes assessed as reduction in [3H]-hypoxanthine incorporation pretreated for 20 hrs followed by [3H]-hypoxanthine addition measured after 20 hrs by radioactivity method. Type of data set: functional, organism-based.
A short description of data set [20]: Inhibition of Plasmodium falciparum DHFR using DHF as substrate by spectrophotometric analysis.

Broadly, the IC50 is the concentration needed to halve the response being measured. As a reminder, the Ki is a dissociation constant, usually derived from enzyme kinetics or from competition with a known ligand. `CC1(C)N=C(N)N=C(N)N1OCCCSc1ccc(Cl)cc1`: the selectivity ratio in data set [1] was determined as 40; in [5] it was 70; in data set [6], 26; in data set [11] it was 30200; in [12], 30; in [17], 2970. For the same compound, the 50% inhibitory concentration (IC50) in data set [2] is 1.8 nM; in data set [3] it was 18100 nM; in data set [4], 260 nM; in data set [7] it was 37 nM; in data set [9], 5.4 nM; in data set [18], 6.1 nM. The 50% inhibitory concentration (IC50) in data set [19] worked out at 0.6 nM. The Ki is 0.7 nM in data set [8]; 0.8 nM in data set [10]; 0.6 nM in data set [13]; 0.9 nM in data set [14]; 0.9 nM in data set [15]; 3.1 nM in data set [16].
For `CC1(C)N=C(N)N=C(N)N1OCCCOc1cc(Cl)c(Cl)cc1Cl`, the selectivity ratio in [1] was 29; in [5], above 56; in data set [6] it was 24; in data set [11] it was above 1750; in data set [12], 8; in [17] it was above 435. Besides, the IC50 in [2] is 0.34 nM; in data set [3], above 1000 nM; in [4], 18 nM; in data set [7], 3.8 nM; in data set [9], 4.2 nM; in [18], 2.3 nM. Further, the IC50 in [19] turned out to be 0.57 nM. Moreover, the Ki in [8] turned out to be 1.1 nM; in data set [20], 0.5 nM; in data set [10], 1.9 nM; in data set [14], 0.6 nM; in data set [15], 0.4 nM.
Turning to `CC1(C)N=C(N)N=C(N)N1OCCCNc1ccc(Cl)c(Cl)c1`, the selectivity ratio is 40 in data set [1]; above 68 in data set [5]; 61 in data set [6]; above 11100 in [11]; 9 in data set [12]; above 11100 in data set [17]. Further, the IC50 in data set [2] was 17 nM; in data set [3] it was above 50000 nM; in data set [4] it was 740 nM; in data set [7] it was 390 nM; in data set [9], 58 nM; in data set [18], 45 nM. Besides, in data set [19], the IC50 came to 4.5 nM. For the same compound, the Ki in data set [8] turned out to be 0.9 nM; in data set [10], 5.1 nM; in data set [13], 1.2 nM; in [14], 0.8 nM; in data set [15] it was 1.4 nM; in data set [16], 3.7 nM.
As for `CC1(C)N=C(N)N=C(N)N1OCCCOc1cccc(Cl)c1Cl`, the selectivity ratio in data set [1] came out at 39; in data set [5], 1870; in data set [6] it was 24; in [11], 27700; in data set [12], 21; in data set [17] it was 5110. Further, the IC50 in data set [2] was 0.21 nM; in data set [3] it was 9710 nM; in data set [4], 5.2 nM; in data set [7] it was 3.9 nM; in data set [9], 0.82 nM; in [18], 1.9 nM. Besides, in data set [19], the IC50 is 0.35 nM. Also, the inhibition constant (Ki) in data set [8] amounted to 0.7 nM; in data set [10] it was 1.1 nM; in data set [13], 0.6 nM; in data set [14], 1 nM; in data set [15], 1.4 nM; in data set [16] it was 1.3 nM.
Take `CC1(C)N=C(N)N=C(N)N1OCCCCc1ccccc1`: the selectivity ratio in data set [1] is 139; in data set [5] it was 46; in data set [6] it was 60; in data set [11] it was 821; in [12], 11; in [17], 874. Moreover, the half-maximal inhibitory concentration (IC50) in [2] is 3.7 nM; in data set [3], 27100 nM; in [4], 590 nM; in data set [7] it was 46 nM; in [9], 44 nM; in data set [18] it was 31 nM. Further, the IC50 in data set [19] is 33 nM. The inhibition constant Ki came out at 0.7 nM in data set [8]; 3.7 nM in data set [10]; 0.3 nM in [13]; 0.7 nM in data set [14]; 2.2 nM in [15]; 2 nM in data set [16].
For `NC1=NC(c2ccccc2)N(OCCCOc2cc(Cl)c(Cl)cc2Cl)C(N)=N1` (stereo not drawn), the selectivity ratio was 242 in [1]; 52 in data set [5]; 76 in [6]; 4920 in data set [11]; 207 in data set [12]; 570 in data set [17]. In addition, the IC50 was determined as 3.2 nM in [2]; 25100 nM in data set [3]; 480 nM in data set [4]; 340 nM in data set [7]; 60 nM in [9]; 44 nM in [18]. For the same compound, the IC50 in data set [19] was determined as 5.1 nM. Moreover, the inhibition constant (Ki) was determined as 1.6 nM in data set [8]; 0.6 nM in data set [20]; 0.7 nM in [10]; 1.9 nM in [14]; 0.3 nM in data set [15].
Consider `CC1(C)NC(N)=NC(=N)N1OCCCSc1ccccc1`, for which the selectivity ratio stood at 58 in data set [1]; 997 in data set [5]; 36 in [6]; 123000 in [11]; 58 in data set [12]; 13300 in [17]. Further, the IC50 worked out at 0.58 nM in data set [2]; 63800 nM in data set [3]; 64 nM in data set [4]; 39 nM in data set [7]; 9.9 nM in data set [9]; 4.8 nM in data set [18]. Besides, the IC50 in data set [19] stood at 0.52 nM. The Ki in data set [8] turned out to be 0.3 nM; in [13] it was 0.5 nM; in data set [14] it was 0.8 nM; in data set [15], 0.4 nM; in [16], 1 nM.
In the case of `CC1(C)N=C(N)N=C(N)N1OCCCOc1ccccc1`, the selectivity ratio is 52 in [1]; 628 in data set [5]; 36 in data set [6]; 90000 in data set [11]; 19 in data set [12]; 6170 in [17]. Besides, the half-maximal inhibitory concentration (IC50) in data set [2] was 0.59 nM; in data set [3], 33300 nM; in data set [4], 53 nM; in data set [7], 32 nM; in data set [9], 5.9 nM; in [18], 5.4 nM. The IC50 in data set [19] turned out to be 0.37 nM. Further, the Ki in data set [8] was determined as 0.8 nM; in [10], 1.9 nM; in data set [13] it was 0.7 nM; in data set [14], 1 nM; in [15] it was 1.4 nM; in [16], 1.5 nM.
On to `CC1(C)N=C(N)N=C(N)N1OCCCSc1ccccc1Cl`, for which the selectivity ratio in data set [1] amounted to 35; in data set [5], 332; in data set [6], 19; in data set [11] it was 30400; in [12], 21; in data set [17], 4060. For the same compound, the IC50 in [2] worked out at 0.73 nM; in data set [3], 14600 nM; in [4], 44 nM; in data set [7], 4.4 nM; in data set [9], 3.3 nM; in data set [18], 3.6 nM. Moreover, in data set [19], the IC50 is 0.48 nM. Moreover, the Ki was found to be 0.7 nM in data set [8]; 1 nM in [10]; 0.6 nM in data set [13]; 1.1 nM in data set [14]; 0.9 nM in data set [15]; 1.9 nM in [16].

For the origin of these results see ChEMBL document CHEMBL4765292, “Flexible diaminodihydrotriazine inhibitors of Plasmodium falciparum dihydrofolate reductase: Binding strengths, modes of binding and their antimalarial activities” (Eur J Med Chem, 2020).
